Reference: ChEMBL document CHEMBL3044580, “Insecticide selectivity and behavioral response of the earwig Doru luteipes” (2011)
≈ marks a conversion by molar mass, not a printed value. Calls of active or inactive are those of the source. The calls are words filed in the database; no cut-off is given here.

Key:
Doru [1] = assay: Relative toxicity in adult Doru luteipes (earwigs) in compound treated maize leaf assessed as mortality measured by time-mortality bioassay; format: functional
Doru [2] = assay: Insecticidal activity against adult Doru luteipes (earwigs) in compound treated maize leaf assessed as mortality measured after 48 hr by concentration-mortality bioassay; format: functional
Spodoptera frugiperda [3] = assay: Relative toxicity in second instar Spodoptera frugiperda (fall armyworm) in compound treated maize leaf assessed as mortality measured by Time-mortality bioassay; format: functional
Doru [4] = assay: Relative toxicity in adult Doru luteipes (earwigs) in compound treated maize leaf assessed as mortality measured after 48 hr by concentration-mortality bioassay; format: functional
Doru [5] = assay: Insecticidal activity against adult Doru luteipes (earwigs) in compound treated maize leaf assessed as mortality measured by time-mortality bioassay; format: functional
Spodoptera frugiperda [6] = assay: Relative toxicity in second instar Spodoptera frugiperda (fall armyworm) in compound treated maize leaf assessed as mortality measured after 48 hr by concentration-mortality bioassay; format: functional
[7] = Selectivity ratio of LC50 for adult earwig species Doru luteipes to LC50 for second instar fall armyworm Spodoptera frugiperda by concentration-mortality bioassay; format: functional
Spodoptera frugiperda [8] = assay: Insecticidal activity in second instar Spodoptera frugiperda (fall armyworm) in compound treated maize leaf assessed as mortality measured by Time-mortality bioassay; format: functional
Doru [9] = assay: Insecticidal activity against adult Doru luteipes (earwigs) in compound treated maize leaf assessed as insect avoidance by behavioral bioassay; format: functional, organism-based
Spodoptera frugiperda [10] = assay: Insecticidal activity in second instar Spodoptera frugiperda (fall armyworm) in compound treated maize leaf assessed as mortality measured after 48 hr by concentration-mortality bioassay; format: functional
Doru [11] = assay: Insecticidal activity against adult Doru luteipes (earwigs) in compound treated maize leaf assessed as reduction in walking velocity in fully-treated arenas measured during 10 min compound exposure by behavioral locomotory bioassay; format: functional, organism-based
Doru [12] = assay: Insecticidal activity against adult Doru luteipes (earwigs) in compound treated maize leaf assessed as reduction in distance walked in fully-treated arenas measured during 10 min compound exposure by behavioral locomotory bioassay; format: functional, organism-based
Doru [13] = assay: Insecticidal activity against adult Doru luteipes earwigs) in compound treated maize leaf assessed as higher in number of stops in half-treated arenas measured during 10 min compound exposure by behavioral locomotory bioassay; format: functional, organism-based
Doru [14] = assay: Insecticidal activity against adult Doru luteipes earwig ) in compound treated maize leaf assessed as higher resting time in half-treated arenas measured during 10 min compound exposure by behavioral locomotory bioassay; format: functional, organism-based

## CCOCn1c(-c2ccc(Cl)cc2)c(C#N)c(Br)c1C(F)(F)F [CHLORFENAPYR]
Doru [1]
  Ratio: 12.48
Doru [2]
  LC50: 53.3 µg/mL (≈ 131 µM)
Spodoptera frugiperda [3]
  Ratio: 6.83
Doru [4]
  Ratio: 14000
Doru [5]
  LT50: 21.58 h
Spodoptera frugiperda [6]
  Ratio: 1.78
[7]
  RatioLC50: 22.5
Spodoptera frugiperda [8]
  LT50: 116.34 min
Doru [9]
  inhibition: Active
Spodoptera frugiperda [10]
  LC50: 2.37 µg/mL (≈ 5.81 µM)

## CCOP(=S)(OCC)Oc1nc(Cl)c(Cl)cc1Cl [CHLORPYRIFOS]
Doru [1]
  Ratio: 1
Doru [2]
  LC50: 1.4 µg/mL (≈ 3.99 µM)
Spodoptera frugiperda [3]
  Ratio: 1.26
Doru [4]
  Ratio: 550000
Doru [5]
  LT50: 1.73 h
Spodoptera frugiperda [6]
  Ratio: 3.57
[7]
  RatioLC50: 1.2
Spodoptera frugiperda [8]
  LT50: 21.52 min
Doru [9]
  inhibition: Active
Spodoptera frugiperda [10]
  LC50: 1.18 µg/mL (≈ 3.37 µM)

## CNC(=O)c1cc(Cl)cc(C)c1NC(=O)c1cc(Br)nn1-c1ncccc1Cl [CHLORANTRANILIPROLE]
Spodoptera frugiperda [3]
  Ratio: 4.97
Doru [4]
  Ratio: 1
Spodoptera frugiperda [6]
  Ratio: 5.46
[7]
  RatioLC50: 980000
Spodoptera frugiperda [8]
  LT50: 84.61 min
Spodoptera frugiperda [10]
  LC50: 0.77 µg/mL (≈ 1.59 µM)

## CC1(C)[C@H](C(=O)O[C@H](C#N)c2cccc(Oc3ccccc3)c2)[C@@H]1C=C(Br)Br [DELTAMETHRIN]
Doru [2]
  LC50: 22.6 µg/mL (≈ 44.7 µM)
Spodoptera frugiperda [3]
  Ratio: 2.63
Doru [4]
  Ratio: 33000
Spodoptera frugiperda [6]
  Ratio: 23.2
[7]
  RatioLC50: 152
Spodoptera frugiperda [8]
  LT50: 44.84 min
Spodoptera frugiperda [10]
  LC50: 0.18 µg/mL (≈ 0.356 µM)

## CNC(=O)ON=C(C)SC [METHOMYL]
Doru [2]
  LC50: 2180 µg/mL (≈ 13400 µM)
Spodoptera frugiperda [3]
  Ratio: 1.71
Doru [4]
  Ratio: 348
Spodoptera frugiperda [6]
  Ratio: 1
[7]
  RatioLC50: 517
Spodoptera frugiperda [8]
  LT50: 29.18 min
Spodoptera frugiperda [10]
  LC50: 4.21 µg/mL (≈ 26 µM)

## CC[C@H]1CCC[C@H](O[C@H]2CC[C@H](N(C)C)[C@@H](C)O2)[C@@H](C)C(=O)C2=C[C@@H]3[C@@H](C=C(C)[C@@H]4C[C@@H](O[C@@H]5O[C@@H](C)[C@H](OC)[C@@H](OC)[C@H]5OC)C[C@@H]34)[C@@H]2CC(=O)O1.CC[C@H]1CCC[C@H](O[C@H]2CC[C@H](N(C)C)[C@@H](C)O2)[C@@H](C)C(=O)C2=C[C@@H]3[C@@H](C=C[C@@H]4C[C@@H](O[C@@H]5O[C@@H](C)[C@H](OC)[C@@H](OC)[C@H]5OC)C[C@@H]34)[C@@H]2CC(=O)O1
Doru [11]
  inhibition: Active
Doru [12]
  inhibition: Active
Doru [1]
  Ratio: 6.61
Doru [13]
  inhibition: Active
Doru [2]
  LC50: 215 µg/mL
Spodoptera frugiperda [3]
  Ratio: 2.77
Doru [4]
  Ratio: 3528
Doru [5]
  LT50: 11.43 h
Doru [14]
  inhibition: Active
Spodoptera frugiperda [6]
  Ratio: 99.47
[7]
  RatioLC50: 3530
Spodoptera frugiperda [8]
  LT50: 47.17 min
Spodoptera frugiperda [10]
  LC50: 0.04 µg/mL

## CCOc1ccc(C(C)(C)COCc2cccc(Oc3ccccc3)c2)cc1 [ETOFENPROX]
Doru [2]
  LC50: 668 µg/mL (≈ 1770 µM)
Spodoptera frugiperda [3]
  Ratio: 1
Doru [4]
  Ratio: 1133.5
Spodoptera frugiperda [6]
  Ratio: 1.25
[7]
  RatioLC50: 198
Spodoptera frugiperda [8]
  LT50: 17.03 min
Doru [9]
  inhibition: Active
Spodoptera frugiperda [10]
  LC50: 3.37 µg/mL (≈ 8.95 µM)

## CC1(C)[C@H](/C=C(\Cl)C(F)(F)F)[C@@H]1C(=O)O[C@@H](C#N)c1cccc(Oc2ccccc2)c1 (relative stereo) [REL-LAMBDA CYHALOTHRIN]
Doru [1]
  Ratio: 1.23
Doru [2]
  LC50: 16.6 µg/mL (≈ 36.9 µM)
Spodoptera frugiperda [3]
  Ratio: 1.47
Doru [4]
  Ratio: 45000
Doru [5]
  LT50: 2.12 h
Spodoptera frugiperda [6]
  Ratio: 6
[7]
  RatioLC50: 23.7
Spodoptera frugiperda [8]
  LT50: 25.03 min
Spodoptera frugiperda [10]
  LC50: 0.7 µg/mL (≈ 1.56 µM)
